Assay [1] deals with T1, HLA-DRB4*0101 molecule (B4) (Homo sapiens, UniProt P01903+P13762, G164S).
T1 construct: endogenous in cells
Nature of the assay: biochemical. The assay is classed as binding. How it is done:
(§1) The incubation conditions are specific to each HLA-DR molecule (incubation time, pH, reagent R1, concentration of HLA-DR or of peptide). […]
(§2) The HLA-DR molecules were purified from various homozygous EBV lines by immunoaffinity. The method described in Southwood et al. (24) can in particular be used. Their origin and the various alleles which characterize them are described in table IV.
(§3) The monomorphic antibody specific for the HLA-DR molecules is in particular that described in Southwood et al. (24) or that described in Posch et al. (25). The antibodies are purified from culture supernatants on protein A-sepharose columns. These antibodies are coupled to sepharose 4B or protein A-sepharose columns for purification of the HLA-DR molecules. • HLA-DR/Peptide Binding Assays
(§4) The assays for binding of the peptides to the HLA-DR molecules are competition assays with immuno-enzymatic revelation, initially developed by Hill on the HLA-DR molecule (26). They are carried out in 96-well plates, which makes it possible to study many samples in the same experiment. Briefly, the purified HLA-DR molecules are incubated with a biotinylated peptide which serves as a tracer and various concentrations of test peptide.
(§5) After incubation for 24 to 72 hours, these samples are neutralized, and then 100 μl of each sample are transferred onto an ELISA plate precoated with the HLA-DR molecule-specific monomorphic antibody.
(§6) The alleles studied are the alleles most commonly encountered. They are the alleles HLA-DRB3*0101, HLA-DRB4*0101 and HLA-DRB5*0101.
(§7) The choice of the biotinylated peptides is the determining element of the assay specificity.

In assay [2] the target is T2, HLA-DR11 molecule (DRB1*1101) (Homo sapiens, UniProt P01903+P01911, A100R/A169T/A87E/I96F/K41T/L162R/M171V/P40S/Q125H/Q178H/Q39Y/Q99D/R42S/S66Y/T262R/V115G/W38E).
T2 construct: endogenous in cells
T2 sequence (P01903 26-254, other chains not shown): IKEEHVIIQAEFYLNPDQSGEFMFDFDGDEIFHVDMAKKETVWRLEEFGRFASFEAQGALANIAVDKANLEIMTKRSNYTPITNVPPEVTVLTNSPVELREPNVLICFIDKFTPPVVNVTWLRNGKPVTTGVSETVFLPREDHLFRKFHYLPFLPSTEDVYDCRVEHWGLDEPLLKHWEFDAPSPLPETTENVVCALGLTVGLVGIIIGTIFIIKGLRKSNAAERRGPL
In words: biochemical. The assay is classed as binding. The method, then: as §1, §2, §3, §4, §5, §7
(§8) For each HLA-DRB1 molecule, the concentration of MHC II molecules, the concentration of the biotinylated peptide, the incubation pH and the incubation time were optimized as specified in table V below.

Assay [3] concerns the target T3, HLA-DR3 molecule (DRB1*0301) (Homo sapiens, UniProt P01903+P01911, A100K/A102G/A103R/A169T/F55Y/I96L/K41T/L162R/M171V/P40S/Q125H/Q178H/Q39Y/R42S/S66N/T106N/T262R/W38E/Y61H).
T3 construct: endogenous in cells
In words: biochemical. The format is binding. How it is done:
as §1, §2, §3, §4, §5, §7, §8

The target in assay [4] is T4, HLA-DR4 molecule (DRB1*0401) (Homo sapiens, UniProt P01903+P01911, A100K/A169T/F76Y/I96L/K127E/L162R/M171V/N62H/P40V/Q125Y/R42H/S133A/S149N/S66Y/V115G/V209L/W38E).
T4 construct: endogenous in cells
In words: HLA-DR/peptide competition binding assay, DRB1*0401. The method, then:
as §1, §2, §3, §4, §5, §7, §8

Assay [5] addresses HLA-DR13 molecule (DRB1*1301) (Homo sapiens, UniProt P01903+P01911, A100E/A169T/K41T/L162R/M171V/P40S/Q125H/Q178H/Q39Y/Q99D/R42S/S66N/T262R/W38E/Y61H). In words: biochemical. The assay is classed as binding. The method, then: The incubation conditions are specific to each HLA-DR molecule (incubation time, pH, reagent R1, concentration of HLA-DR or of peptide).
(B1 21-36) (SEQ ID No. 5), specific for the allele DRB1*1301, • […]
as §2, §3, §4, §5, §7, §8

Assay [6] has as its target T5, HLA-DRB5*0101 molecule (B5) (Homo sapiens, UniProt P01903+Q30154).
T5 construct: endogenous in cells
Nature of the assay: biochemical. The assay is classed as binding. How it is done:
as §1, §2, §3, §4, §5, §6, §7

Assay [7] deals with T6, HLA-DR1 molecule (DRB1*0101) (Homo sapiens, UniProt P01903+P01911, A100R/D57E/F55L/F60I/F76Y/I96L/L162R/M171V/P40L/Q125E/R42F/V115G/Y59C).
T6 construct: endogenous in cells
Nature of the assay: biochemical. The assay is classed as binding. How it is done:
as §1, §2, §3, §4, §5, §7, §8

The target of assay [8] is T7, HLA-DR15 molecule (DRB1*1501) (Homo sapiens, UniProt P01903+P01911).
T7 construct: endogenous in cells
Nature of the assay: biochemical. The assay is classed as binding. How it is done: as §1, §2, §3, §4, §5, §7, §8

In assay [9] the target is HLA-DR7 molecule (DRB1*0701) (Homo sapiens, UniProt P01903+P01911, A100R/A102G/A103Q/D57E/D86V/E43K/F76Y/K127E/L162R/M171V/P40G/Q125H/Q99D/R33Q/R42Y/R54Q/S133A/S66F/T210M/V115G/Y107V/Y59L/Y89S). Nature of the assay: biochemical. The assay is classed as binding. How it is done: as §1, §2, §3, §4, §5, §7, §8

Like-named read-outs stand apart in the source and are kept apart here. Residues, ends and D or L forms follow the SMILES beside them.

T3 sequence (P01903 26-254, other chains not shown): as above

`CC[C@H](C)[C@H](NC(=O)[C@H](CC(=O)O)NC(=O)[C@@H](N)Cc1c[nH]cn1)C(=O)N[C@H](C(=O)N[C@@H](CC(C)C)C(=O)N[C@@H](CCC(=O)O)C(=O)N[C@@H](CS)C(=O)N[C@H](C(=O)N[C@@H](Cc1ccc(O)cc1)C(=O)N[C@@H](CS)C(=O)N[C@@H](CCCCN)C(=O)N[C@@H](CCC(N)=O)C(=O)N[C@@H](CCC(N)=O)C(=O)N[C@@H](CC(C)C)C(=O)N[C@@H](CC(C)C)C(=O)O)C(C)C)[C@@H](C)CC` [E6 31-45, H D I I L E C V Y C K Q Q L L]: the half-maximal inhibitory concentration (IC50) in assay [1] was more than 10000 nM; in [2] it was 600 nM; in assay [3], more than 10000 nM.

`CC(C)C[C@H](NC(=O)[C@H](CCC(N)=O)NC(=O)[C@H](CCC(N)=O)NC(=O)[C@H](CCCCN)NC(=O)[C@H](CS)NC(=O)[C@H](Cc1ccc(O)cc1)NC(=O)[C@@H](NC(=O)[C@H](CS)NC(=O)[C@@H](N)CCC(=O)O)C(C)C)C(=O)N[C@@H](CC(C)C)C(=O)N[C@@H](CCCNC(=N)N)C(=O)N[C@@H](CCCNC(=N)N)C(=O)N[C@@H](CCC(=O)O)C(=O)N[C@H](C(=O)N[C@@H](Cc1ccc(O)cc1)C(=O)O)C(C)C` [E6 36-50, E C V Y C K Q Q L L R R E V Y]: the IC50 in assay [4] was 5000 nM; in [5] it was more than 10000 nM; in assay [1], more than 10000 nM.

`CC(C)C[C@H](NC(=O)[C@H](CC(C)C)NC(=O)[C@H](CCC(N)=O)NC(=O)[C@@H](N)CCC(N)=O)C(=O)N[C@@H](CCCNC(=N)N)C(=O)N[C@@H](CCCNC(=N)N)C(=O)N[C@@H](CCC(=O)O)C(=O)N[C@H](C(=O)N[C@@H](Cc1ccc(O)cc1)C(=O)N[C@@H](CC(=O)O)C(=O)N[C@@H](Cc1ccccc1)C(=O)N[C@@H](C)C(=O)N[C@@H](Cc1ccccc1)C(=O)N[C@@H](CCCNC(=N)N)C(=O)N[C@@H](CC(=O)O)C(=O)O)C(C)C` [E6 42-56, Q Q L L R R E V Y D F A F R D] (H-QQLLRREVYDFAFRD-OH; N-terminus and C-terminus assumed): the IC50 is more than 10000 nM in assay [4]; more than 10000 nM in [6]; 55 nM in assay [1]; 6000 nM in [2]; more than 10000 nM in assay [3]; more than 10000 nM in assay [7]. The same compound came in with an IC50 in [8] of 3250 nM.

Consider `CC(C)C[C@H](NC(=O)[C@@H](NC(=O)[C@@H](NC(=O)CNC(=O)[C@H](Cc1ccc(O)cc1)NC(=O)[C@H](CC(C)C)NC(=O)[C@H](CO)NC(=O)[C@H](Cc1ccc(O)cc1)NC(=O)[C@H](CS)NC(=O)[C@H](Cc1ccc(O)cc1)NC(=O)[C@H](Cc1c[nH]cn1)NC(=O)[C@H](CCCNC(=N)N)NC(=O)[C@H](Cc1ccc(O)cc1)NC(=O)[C@H](CCC(=O)O)NC(=O)[C@@H](N)CO)[C@@H](C)O)[C@@H](C)O)C(=O)O` [E6 81-95, S E Y R H Y C Y S L Y G T T L] (H-SEYRHYCYSLYGTTL-OH; N-terminus and C-terminus assumed), for which the IC50 in [5] is more than 10000 nM; in assay [1], more than 10000 nM; in assay [2], 725 nM; in [7] it was 10 nM; in assay [8], more than 10000 nM.

Turning to `CC[C@H](C)[C@H](NC(=O)[C@H](CC(N)=O)NC(=O)[C@H](Cc1c[nH]cn1)NC(=O)[C@H](Cc1ccccc1)NC(=O)[C@H](CCCNC(=N)N)NC(=O)[C@H](CCC(N)=O)NC(=O)[C@H](CCCCN)NC(=O)[C@H](CCCCN)NC(=O)[C@H](CC(=O)O)NC(=O)[C@H](CC(C)C)NC(=O)[C@@H](N)Cc1c[nH]cn1)C(=O)N[C@@H](CCCNC(=N)N)C(=O)NCC(=O)N[C@@H](CCCNC(=N)N)C(=O)O` [E6 124-138, H L D K K Q R F H N I R G R] (H-HLDKKQRFHNIRGR-OH; N-terminus and C-terminus assumed), the IC50 in assay [2] is 475 nM; in assay [7], 10 nM; in assay [9] it was more than 10000 nM.

As for `CC[C@H](C)[C@H](NC(=O)[C@H](CC(N)=O)NC(=O)[C@H](Cc1c[nH]cn1)NC(=O)[C@H](Cc1ccccc1)NC(=O)[C@H](CCCNC(=N)N)NC(=O)[C@@H](N)CCC(N)=O)C(=O)N[C@@H](CCCNC(=N)N)C(=O)NCC(=O)N[C@@H](CCCNC(=N)N)C(=O)N[C@@H](Cc1c[nH]c2ccccc12)C(=O)N[C@H](C(=O)NCC(=O)N[C@@H](CCCNC(=N)N)C(=O)N[C@@H](CS)C(=O)N[C@@H](CCSC)C(=O)O)[C@@H](C)O` [E6 130-144, Q R F H N I R G R W T G R C M] (H-QRFHNIRGRWTGRCM-OH; N-terminus and C-terminus assumed), the figures for the IC50 in [2], in assay [7] and in assay [9] were 115 nM, 4 nM and 950 nM, respectively.

On to `CC[C@H](C)[C@H](N)C(=O)N[C@@H](Cc1c[nH]cn1)C(=O)N[C@@H](CC(=O)O)C(=O)N[C@H](C(=O)N[C@H](C(=O)N[C@@H](CC(C)C)C(=O)N[C@@H](CCC(=O)O)C(=O)N[C@@H](CS)C(=O)N[C@H](C(=O)N[C@@H](Cc1ccc(O)cc1)C(=O)N[C@@H](CS)C(=O)N[C@@H](CCCCN)C(=O)N[C@@H](CCC(N)=O)C(=O)N[C@@H](CCC(N)=O)C(=O)N[C@@H](CC(C)C)C(=O)N[C@@H](CC(C)C)C(=O)N[C@@H](CCCNC(=N)N)C(=O)N[C@@H](CCCNC(=N)N)C(=O)N[C@@H](CCC(=O)O)C(=O)N[C@H](C(=O)N[C@@H](Cc1ccc(O)cc1)C(=O)O)C(C)C)C(C)C)[C@@H](C)CC)[C@@H](C)CC` [E6/3], for which the IC50 in assay [1] (Table VIIa, DRB4*0101, tracer E2/E168) was 700 nM; in assay [2] it was 800 nM; in [3], 1000 nM; in [7], 400 nM.

`CC(C)C[C@H](NC(=O)[C@H](CC(=O)O)NC(=O)[C@@H](NC(=O)[C@@H](NC(=O)[C@H](CCC(=O)O)NC(=O)[C@@H]1CCCN1C(=O)[C@H](CCC(N)=O)NC(=O)[C@H](CC(C)C)NC(=O)[C@H](CC(=O)O)NC(=O)[C@@H](N)CC(C)C)[C@@H](C)O)[C@@H](C)O)C(=O)N[C@@H](Cc1ccc(O)cc1)C(=O)N[C@@H](CS)C(=O)N[C@@H](Cc1ccc(O)cc1)C(=O)N[C@@H](CCC(=O)O)C(=O)N[C@@H](CCC(N)=O)C(=O)O` [E7 13-27, L D L Q P E T T D L Y C Y E Q]: the IC50 in assay [6] (Binding activity DRB5 (concentration giving 50% inhibition of maximum binding), Table VIIb, DRB5*0101, tracer HA 306-318) was more than 10000 nM; in assay [1] (Table VIIb, DRB4*0101, tracer E2/E168), more than 10000 nM; in assay [2], 3500 nM; in assay [3] it was 3500 nM; in assay [7] it was 4000 nM.

Consider “E6 (91-119): peptide corresponding to positions 91-119 of the E6 protein of HPV16, SEQ ID No. 13 (YGTTLEQQYNKPLCDLLIRCINCQKPLCP; Description of the artificial sequence peptide E6 91-119)”, for which the “Binding to the DRB1*0401 molecule, in words” value in assay [4] was “good affinity”. For the same compound, in assay [6], the “Binding to the DRB5*0101 molecule, in words” value is reported as “good affinity”. Also, the “Binding to the DRB1*0301 molecule, in words” value in assay [3] is on record as “good affinity”. For the same compound, the “Binding to the DRB1*0101 molecule, in words” value in assay [7] is “good affinity”. In assay [9], the “Binding to the DRB1*0701 molecule, in words” value is “good affinity”. Moreover, the “Binding to the DRB1*1501 molecule, in words” value in assay [8] is given as “good affinity”.

As usually defined, the IC50 is the concentration that gives 50% inhibition. Low values mean greater potency, high ones weaker potency.

The values are drawn from patent US7488791B2, “Mixture of peptides derived from E6 and/or E7 papillomavirus proteins and uses thereof” (priority 2001, dated 2009).
